Laboratory results reported in patent EP0303243A2, “Use of atrial natriuretic factor (ANF), fragments and analogues thereof, for the treatment of cardiac disorders” (HOECHST AKTIENGESELLSCHAFT, priority 1987, dated 1989).
Non-standard residues stand in square brackets, D forms with d. Residues, ends and D or L forms follow the SMILES beside them.

Tested on: isolierten arbeitenden Rattenherzen
Assay: Isolated working rat heart (Langendorff) with coronary occlusion (ischaemia) and reperfusion
Parameters: species or system Ratten
Conditions: 10^-7 mol/l; for Myokardiale Gewebsspiegel von ATP / Myokardiale Gewebsspiegel von Glykogen / Myokardiale Gewebsspiegel von KP / Myokardiale Gewebsspiegel von Laktat: ischaemic hearts perfused for 65 Minuten; for KK / LDH / Laktat: coronary venous effluent
Excerpt: Die erfindungsgemäßen Verbindungen verbessern arrhythmische Zustände, die Hämodynamik und den Stoffwechsel des Herzens. Ihre Wirkung wurde an Ratten im Test nach Langendorff geprüft (0. Langendorff "Untersuchungen am überlebenden Säugetierherzen", Pflügers Archiv […], Bd. 61, 291 - 332; H. Bardenheuer, J. Schrader "Relationships between myocardial oxygen consumption, coronary flow and adenosin release in an improved isolated working heart preparation of guinea pigs", Circulation Research, 1983, Bd. 51, 263 - 271
Die Koronargefäße der isolierten arbeitenden Rattenherzen wurden retrograd über die Aorta mit Krebs-Henseleit-Lösung perfundiert. In den linken Ventrikel wurde ein Ballon verbracht, der mit einem künstlichen "systemischen" Kreislauf verbunden war. Die Druck-Volumenarbeit wurde erreicht, indem aus dem Ballon in den systemischen Kreislauf Kochsalzlösung gepumpt wurde. Die Herzen wurden mit einem Druck von 65 mmHg perfundiert, die Nachlast betrug ebenfalls 65 mmHg und die Vorlast 7,4 mmHg. In einer Kontrollperfusionsperiode wurden die Herzen über 20 Minuten perfundiert. Danach wurde die linke Koronararterie in der Nähe ihres Austritts aus der Aorta mit einem Clip verschlossen. Nach 15 Minuten (ischämische Periode) wurde der Verschluß geöffnet und es schloß sich eine 30 minütige Reperfusionsphase an. Während dieses experimentellen Zeitverlaufs untersuchten wir die Effekte des ANF auf kardiodynamische Parameter, wie linker Ventrikeldruck (LVD), dp/dt max, Herzfrequenz (HF), Koronarfluß (KorF), myokardialer Sauerstoffverbrauch (MSV), auf Enzyme im koronarvenösen Effluat wie Laktat dehydrogenase (LDH) und Kreatinkinase (KK) sowie Laktat, auf metabolische Parameter im Myokard wie Laktat, Glykogen, Adenosintriphosphat (ATP) und Kreatinphosphat (KP) und auf Reperfusionsarrhythmien mittels EKG.
Eine Substanz wird dann als wirksam bezeichnet, wenn nach dem Abklemmen der linken Herzkoronararterie und anschließender Reperfusion keine Arrhythmien - im Vergleich zur unbehandelten Kontrolle - entstehen, wobei das Kammerflimmern (KF) einen meßbaren Parameter darstellt.
Die erfindungsgemäßen Verbindungen wurden in den entsprechenden Konzentrationen vor und nach Okklusion der linken Koronararterie perfundiert (n:10); (n:4). Kontrollherzen wurden mit Krebs-Henseleit-Lösung perfundiert (n:10).

| Molecule | Myokardiale Gewebsspiegel von ATP | Myokardiale Gewebsspiegel von Glykogen | Myokardiale Gewebsspiegel von KP | Myokardiale Gewebsspiegel von Laktat | HF (Ischämische Periode) [Schläge/Min] | KorF (Ischämische Periode) | LVD (Ischämische Periode) | LVdp/dtmax (Ischämische Periode) | HF (Kontrollperfusionsperiode) [Schläge/Min] | KorF (Kontrollperfusionsperiode) | LVD (Kontrollperfusionsperiode) | LVdp/dtmax (Kontrollperfusionsperiode) | HF (Reperfusionsperiode) [Schläge/Min] | KorF (Reperfusionsperiode) | LVD (Reperfusionsperiode) | LVdp/dtmax (Reperfusionsperiode) | KK (Ischämische Periode) | LDH (Ischämische Periode) | Laktat (Ischämische Periode) | KK (Kontrollperfusionsperiode) [mU/min/g] | further results |
| --- | --- | --- | --- | --- | --- | --- | --- | --- | --- | --- | --- | --- | --- | --- | --- | --- | --- | --- | --- | --- | --- |
| CC[C@H](C)[C@@H]1NC(=O)[C@H](CCCNC(=N)N)NC(=O)[C@@H](CC(C)C)NC(=O)[C@H]([C@@H](C)CC)NC(=O)[C@@H](CCCNC(=N)N)NC1=O [cyclo-(D-Arg-Ile-D-Leu-Arg-Ile)] (cyclo(I[dL]RI[dR])) | * 13,25 ± 0,41 µmol/g Trockengewicht | * 121,09 ± 2,97 µmol/g Trockengewicht | * 15,22 ± 0,83 µmol/g Trockengewicht | * 3,87 ± 0,46 µmol/g Trockengewicht | 299 ± 7 | * 8,7 ± 0,4 ml/Min/g | * 49 ± 4 mmHg | * 1784 ± 109 mmHg • sec^-1 | 306 ± 7 | 12,3 ± 0,8 ml/Min/g | 68 ± 3 mmHg | 2589 ± 101 mmHg • sec^-1 | 284 ± 10 | * 12,9 ± 0,9 ml/Min/g | 48 ± 6 mmHg | 1724 ± 111 mmHg • sec^-1 | * 32 ± 5 mU/min/g | * 22 ± 4 mU/min/g | * 0,24 ± 0,03 µmol/min/g | 32 ± 4 | LDH (Kontrollperfusionsperiode): 29 ± 5 mU/min/g; Laktat (Kontrollperfusionsperiode): * 0,18 ± 0,04 µmol/min/g; KK (Reperfusionsperiode): * 20 ± 4 mU/min/g; LDH (Reperfusionsperiode): * 14 ± 3 mU/min/g; Laktat (Reperfusionsperiode): * 0,16 ± 0,05 µmol/min/g |
| human ANF-(103-126) [h-ANF(103-126)] | * 11,01 ± 0,59 µmol/g Trockengewicht | * 113,15 ± 3,74 µmol/g Trockengewicht | * 13,89 ± 0,99 µmol/g Trockengewicht | * 4,03 ± 0,62 µmol/g Trockengewicht | 301 ± 5 | * 9,0 ± 0,2 ml/Min/g | * 45 ± 3 mmHg | * 1663 ± 117 mmHg • sec^-1 | 298 ± 4 | 11,1 ± 0,2 ml/Min/g | * 55 ± 2 mmHg | * 2125 ± 91 mmHg • sec^-1 | 280 ± 4 | * 11,7 ± 0,3 ml/Min/g | * 37 ± 2 mmHg | * 1385 ± 91 mmHg • sec^-1 | * 30 ± 2 mU/min/g | * 20 ± 2 mU/min/g | * 0,18 ± 0,01 µmol/min/g | 28 ± 3 | MSV (Ischämische Periode): * 11,5 ± 0,3 ml/min/100 g; MSV (Kontrollperfusionsperiode): * 14,5 ± 0,3 ml/min/100 g; MSV (Reperfusionsperiode): 14,7 ± 0,4 ml/min/100 g; LDH (Kontrollperfusionsperiode): 21 ± 2 mU/min/g; Laktat (Kontrollperfusionsperiode): * 0,13 ± 0,01 µmol/min/g; KK (Reperfusionsperiode): * 18 ± 2 mU/min/g; LDH (Reperfusionsperiode): * 12 ± 1 mU/min/g; Laktat (Reperfusionsperiode): * 0,12 ± 0,04 µmol/min/g; KF (ventricular fibrillation (Kammerflimmern), Reperfusionsperiode): * 2,7 ± 0,9 Min |
